Reference: patent publication US9237749B2, “Antimicrobial combinations of pyrion compounds with polyethyleneimines” (Janssen Pharmaceutica N.V., priority 2010, dated 2016)
Where two headings read alike, the source gives them in different places.

Experiments:
Experiment in all cases: Poison Plate Assay
Type in all cases: cell-based
[1] = system: Aspergillus niger CBS554.65; conditions: CBS554, 336 h, read-out: MIC-values in ppm
Procedure: (§1) • Name of component: sodium pyrithione (I-a) • PEI 1300 (II-a) having an average molecular weight of approximately 1300 • PEI 70000 (II-b) having an average molecular weight of approximately 70000 • PEI 750000 (II-c) having an average molecular weight of approximately 750000 • Test models: Fungi: to each well of a 24-well microtiter plate, 1000 μl of a rich (Potato Dextrose Agar, PDA: 4 g potato infusion, 20 g bacto dextrose and 15 g bacto agar in 1 liter deionised water) containing the appropriate combination of the test compounds in one of the concentrations of a dose series is added. The nutrient medium is inoculated with the test fungi by adding a spore/mycelium suspension (10 μl) or a small piece of agar from the margin of an actively growing colony and incubated under dark at 27° C. with 70% relative humidity. The growth of the fungi is evaluated after two weeks. • Concentrations: a 24-step doses series is applied, each step being 0.75 times the previous step, as follows: 25.00−18.75 . . . 0.04−0.03 ppm • Test combinations:
(§2) A. G. Nass (1957) “Some aspects of the notions additivity, synergism and antagonism in the simultaneous activity of two antibacterial agents in vitro” Arch. intern. Pharmacodynamie 109: 211-228; Steinberg, D. C. (2000) “Measuring synergy” cosmetics & Toiletries 115(11): 59-62; which is calculated as follows for two compounds A and B: […]
(§3) When the SI is equal to 1.0, additivity is indicated. […].

Humicola grisea MG28 = conditions: Mycothermus thermophilus, MG28, 336 h, read-out: MIC-values in ppm
Procedure: as §1, §2, §3

[2] = system: Trichoderma viride CBS189.79; conditions: CBS189, 336 h
Procedure: as §1, §2, §3

[3] = system: Colletotrichum musae MUCL nr2; conditions: MUCLNR2, 336 h
Procedure: as §1, §2, §3

[4] = read-out: MIC-values in ppm, Table 1, (I-a) with PEI 1300 (II-a), PDA, 27° C., growth evaluated after two weeks
[5] = read-out: MIC-values in ppm, Table 2, (I-a) with PEI 70000 (II-b), PDA, 27° C., growth evaluated after two weeks

`[O-][n+]1ccccc1S` [I-a, sodium pyrithione] was tested, and the MIC [1] was 0.25 µg/mL, the MIC (Humicola grisea MG28) was 0.45 µg/mL and the MIC [2, 4] was 1.06 µg/mL. It also gave an MIC [2, 5] of 1.06 µg/mL, an MIC ([2]; read-out: MIC-values in ppm, Table 3, (I-a) with PEI 750000 (II-c), PDA, 27° C., growth evaluated after two weeks) of 0.59 µg/mL and an MIC [3, 4] of 0.06 µg/mL. The MIC [3, 5] was 0.08 µg/mL.
